Experimental data from patent US20200288711A1, “Pyrimidin-4-Carbamate or Urea Derivatives As Herbicides” (Syngenta Participations AG, priority 2017, published 2020).

Tests used:
Type in all cases: in vivo
Setaria faberi (SETFA) [1] = assay: B1 pre-emergence herbicidal activity; conditions: Test 1a, rate 1000 g/ha, evaluated after 13 days, score 0-5 (5=total damage, 0=no damage)
Description: (§1) Seeds of a variety of test species were sown in standard soil in pots: Triticum aestivium (TRZAW), Avena fatua (AVEFA), Alopecurus myosuroides (ALOMY), Echinochloa crus-galli (ECHCG), Lolium perenne (LOLPE), Zea mays (ZEAMX), Abutilon theophrasti (ABUTH), Amaranthus retroflexus (AMARE) and Setaria faberi (SETFA). After cultivation for one day (pre-emergence) under controlled conditions in a glasshouse (at 24/16° C., day/night; 14 hours light; 65% humidity), the plants were sprayed with an aqueous spray solution derived from the formulation of the technical active ingredient in acetone/water (50:50) solution containing 0.5% Tween 20 (polyoxyethelyene sorbitan monolaurate, CAS RN 9005-64-5). The test plants were then grown in a glasshouse under controlled conditions (at 24/16° C., day/night; 14 hours light; 65% humidity) and watered twice daily. After 13 days, the test was evaluated (5=total damage to plant; 0=no damage to plant).

[2] = test system: Abutilon theophrasti (ABUTH); assay: B2 post-emergence herbicidal activity; conditions: Test 2a, rate 1000 g/ha, evaluated after 13 days, score 0-5 (5=total damage, 0=no damage)
Description: (§2) Seeds of a variety of test species were sown in standard soil in pots: Triticum aestivium (TRZAW), Avena fatua (AVEFA), Alopecurus myosuroides (ALOMY), Echinochloa crus-galli (ECHCG), Lolium perenne (LOLPE), Zea mays (ZEAMX), Abutilon theophrasti (ABUTH), Amaranthus retroflexus (AMARE) and Setaria faberi (SETFA). After 8 days cultivation (post-emergence) under controlled conditions in a glasshouse (at 24/16° C., day/night; 14 hours light; 65% humidity), the plants were sprayed with an aqueous spray solution derived from the formulation of the technical active ingredient in acetone/water (50:50) solution containing 0.5% Tween 20 (polyoxyethelyene sorbitan monolaurate, CAS RN 9005-64-5). The test plants were then grown in a glasshouse under controlled conditions (at 24/16° C., day/night; 14 hours light; 65% humidity) and watered twice daily. After 13 days, the test was evaluated (5=total damage to plant; 0=no damage to plant).

[3] = test system: Echinochloa crus-galli (ECHCG); assay: B1 pre-emergence herbicidal activity; conditions: Test 1a, rate 1000 g/ha, evaluated after 13 days, score 0-5 (5=total damage, 0=no damage)
Description: as §1

[4] = test system: Amaranthus retroflexus (AMARE); assay: B2 post-emergence herbicidal activity; parameters: key: 5=total damage to plant; 0=no damage to plant; conditions: Test 2a, rate 1000 g/ha, evaluated after 13 days, score 0-5 (5=total damage, 0=no damage)
Description: as §2

Zea mays (ZEAMX) [5] = assay: B2 post-emergence herbicidal activity; parameters: key: 5=total damage to plant; 0=no damage to plant; conditions: Test 2a, rate 1000 g/ha, evaluated after 13 days, score 0-5 (5=total damage, 0=no damage)
Description: as §2

Setaria faberi (SETFA) [6] = assay: B2 post-emergence herbicidal activity; parameters: key: 5=total damage to plant; 0=no damage to plant; conditions: Test 2a, rate 1000 g/ha, evaluated after 13 days, score 0-5 (5=total damage, 0=no damage)
Description: as §2

Lolium perenne (LOLPE) [7] = assay: B2 post-emergence herbicidal activity; parameters: key: 5=total damage to plant; 0=no damage to plant; conditions: Test 2a, rate 1000 g/ha, evaluated after 13 days, score 0-5 (5=total damage, 0=no damage)
Description: as §2

[8] = test system: Echinochloa crus-galli (ECHCG); assay: B2 post-emergence herbicidal activity; parameters: key: 5=total damage to plant; 0=no damage to plant; conditions: Test 2a, rate 1000 g/ha, evaluated after 13 days, score 0-5 (5=total damage, 0=no damage)
Description: as §2

[9] = test system: Amaranthus retroflexus (AMARE); assay: B1 pre-emergence herbicidal activity; parameters: key: 5=total damage to plant; 0=no damage to plant; conditions: Test 1a, rate 1000 g/ha, evaluated after 13 days, score 0-5 (5=total damage, 0=no damage)
Description: as §1

Zea mays (ZEAMX) [10] = assay: B1 pre-emergence herbicidal activity; parameters: key: 5=total damage to plant; 0=no damage to plant; conditions: Test 1a, rate 1000 g/ha, evaluated after 13 days, score 0-5 (5=total damage, 0=no damage)
Description: as §1

Lolium perenne (LOLPE) [11] = assay: B1 pre-emergence herbicidal activity; parameters: key: 5=total damage to plant; 0=no damage to plant; conditions: Test 1a, rate 1000 g/ha, evaluated after 13 days, score 0-5 (5=total damage, 0=no damage)
Description: as §1

[12] = test system: Abutilon theophrasti (ABUTH); assay: B1 pre-emergence herbicidal activity; parameters: key: 5=total damage to plant; 0=no damage to plant; conditions: Test 1a, rate 1000 g/ha, evaluated after 13 days, score 0-5 (5=total damage, 0=no damage)
Description: as §1

Cc1nc(-c2cncc(F)c2)ncc1N(C)C(=O)OC(C)(C)C [Compound E2, tert-butyl N-[2-(5-fluoro-3-pyridyl)-4-methyl-pyrimidin-5-yl]-N-methyl-carbamate]
Control of weed species after pre-emergence application, SETFA (Setaria faberi (SETFA) [1]): 4
Control of weed species after post-emergence application, ABUTH [2]: 1
Control of weed species after pre-emergence application, ECHCG [3]: 2
Control of weed species after post-emergence application, AMARE [4]: 0
Control of weed species after post-emergence application, ZEAMX (Zea mays (ZEAMX) [5]): 5
Control of weed species after post-emergence application, SETFA (Setaria faberi (SETFA) [6]): 5
Control of weed species after post-emergence application, LOLPE (Lolium perenne (LOLPE) [7]): 2
Control of weed species after post-emergence application, ECHCG [8]: 5
Control of weed species after pre-emergence application, AMARE [9]: 0
Control of weed species after pre-emergence application, ZEAMX (Zea mays (ZEAMX) [10]): 4
Control of weed species after pre-emergence application, LOLPE (Lolium perenne (LOLPE) [11]): 0
Control of weed species after pre-emergence application, ABUTH [12]: 0
